Source: the kinase profiling compilation of Christmann-Franck et al. (2016)

Columns and labels:
Experiment in all cases: split-luciferase competition binding
[1] = target: AKT1 (human) (UniProt P31749); details: compound 10.0 µM
[2] = target: AKT2 (human) (UniProt P31751); details: compound 10.0 µM
[3] = target: AKT3 (human) (UniProt Q9Y243); details: compound 10.0 µM
[4] = target: AURKA (human) (UniProt O14965); details: compound 10.0 µM
[5] = target: AURKB (human) (UniProt Q96GD4); details: compound 10.0 µM
[6] = target: AURKC (human) (UniProt Q9UQB9); details: compound 10.0 µM
[7] = target: DMPK (human) (UniProt Q09013); details: compound 10.0 µM
[8] = target: PDPK1 (human) (UniProt O15530); details: compound 10.0 µM
[9] = target: PKN1 (human) (UniProt Q16512); details: compound 10.0 µM
[10] = system: PRKACA (mouse); details: compound 10.0 µM; accession and sequence are those of the human protein
[11] = target: PRKACB (human) (UniProt P22694); details: compound 10.0 µM
[12] = target: PRKCD (human) (UniProt Q05655); details: compound 10.0 µM
[13] = target: PRKCE (human) (UniProt Q02156); details: compound 10.0 µM
[14] = target: PRKCG (human) (UniProt P05129); details: compound 10.0 µM
[15] = target: PRKCH (human) (UniProt P24723); details: compound 10.0 µM
[16] = target: PRKCI (human) (UniProt P41743); details: compound 10.0 µM
[17] = target: PRKCQ (human) (UniProt Q04759); details: compound 10.0 µM
[18] = target: PRKX (human) (UniProt P51817); details: compound 10.0 µM
[19] = target: RPS6KA1 KD1 (human) (UniProt Q15418); details: compound 10.0 µM
[20] = target: RPS6KA2 KD1 (human) (UniProt Q15349); details: compound 10.0 µM
[21] = target: RPS6KA3 KD1 (human) (UniProt P51812); details: compound 10.0 µM
[22] = target: RPS6KA4 KD1 (human) (UniProt O75676); details: compound 10.0 µM
[23] = target: RPS6KA5 KD1 (human) (UniProt O75582); details: compound 10.0 µM
[24] = target: RPS6KA6 KD1 (human) (UniProt Q9UK32); details: compound 10.0 µM
[25] = target: SGK2 (human) (UniProt Q9HBY8); details: compound 10.0 µM
[26] = target: SGK3 (human) (UniProt Q96BR1); details: compound 10.0 µM
[27] = target: STK32B (human) (UniProt Q9NY57); details: compound 10.0 µM

Chain of AURKA (human) (O14965 whole entry, looked up): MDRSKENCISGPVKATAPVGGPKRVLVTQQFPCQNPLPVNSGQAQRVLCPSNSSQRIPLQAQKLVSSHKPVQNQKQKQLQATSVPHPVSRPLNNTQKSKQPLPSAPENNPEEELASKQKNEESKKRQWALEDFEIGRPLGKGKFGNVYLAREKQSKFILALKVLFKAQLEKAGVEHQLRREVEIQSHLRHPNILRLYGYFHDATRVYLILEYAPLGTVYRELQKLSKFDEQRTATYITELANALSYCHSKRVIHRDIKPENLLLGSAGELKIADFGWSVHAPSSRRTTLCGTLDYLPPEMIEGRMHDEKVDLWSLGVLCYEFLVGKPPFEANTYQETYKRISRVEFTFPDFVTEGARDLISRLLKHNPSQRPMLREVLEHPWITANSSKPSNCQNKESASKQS
Chain of PRKCI (human) (P41743 whole entry, looked up): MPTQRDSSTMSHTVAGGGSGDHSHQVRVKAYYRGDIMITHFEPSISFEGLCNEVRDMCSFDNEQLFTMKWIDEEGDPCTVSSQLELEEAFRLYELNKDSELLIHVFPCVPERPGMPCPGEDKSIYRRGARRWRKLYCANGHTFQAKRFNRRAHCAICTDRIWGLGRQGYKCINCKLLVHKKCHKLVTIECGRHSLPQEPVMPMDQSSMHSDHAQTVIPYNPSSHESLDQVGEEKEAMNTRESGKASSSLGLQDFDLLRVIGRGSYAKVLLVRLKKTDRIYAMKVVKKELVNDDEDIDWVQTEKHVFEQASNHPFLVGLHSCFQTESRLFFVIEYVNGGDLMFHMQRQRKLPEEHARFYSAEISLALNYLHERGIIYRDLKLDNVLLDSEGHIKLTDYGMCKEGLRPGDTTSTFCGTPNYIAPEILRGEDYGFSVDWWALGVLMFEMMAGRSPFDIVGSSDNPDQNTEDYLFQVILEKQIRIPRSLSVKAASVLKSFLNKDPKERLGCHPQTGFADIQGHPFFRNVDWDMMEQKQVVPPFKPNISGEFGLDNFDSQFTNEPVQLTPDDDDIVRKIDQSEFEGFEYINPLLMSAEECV
Chain of PRKCH (human) (P24723 whole entry, looked up): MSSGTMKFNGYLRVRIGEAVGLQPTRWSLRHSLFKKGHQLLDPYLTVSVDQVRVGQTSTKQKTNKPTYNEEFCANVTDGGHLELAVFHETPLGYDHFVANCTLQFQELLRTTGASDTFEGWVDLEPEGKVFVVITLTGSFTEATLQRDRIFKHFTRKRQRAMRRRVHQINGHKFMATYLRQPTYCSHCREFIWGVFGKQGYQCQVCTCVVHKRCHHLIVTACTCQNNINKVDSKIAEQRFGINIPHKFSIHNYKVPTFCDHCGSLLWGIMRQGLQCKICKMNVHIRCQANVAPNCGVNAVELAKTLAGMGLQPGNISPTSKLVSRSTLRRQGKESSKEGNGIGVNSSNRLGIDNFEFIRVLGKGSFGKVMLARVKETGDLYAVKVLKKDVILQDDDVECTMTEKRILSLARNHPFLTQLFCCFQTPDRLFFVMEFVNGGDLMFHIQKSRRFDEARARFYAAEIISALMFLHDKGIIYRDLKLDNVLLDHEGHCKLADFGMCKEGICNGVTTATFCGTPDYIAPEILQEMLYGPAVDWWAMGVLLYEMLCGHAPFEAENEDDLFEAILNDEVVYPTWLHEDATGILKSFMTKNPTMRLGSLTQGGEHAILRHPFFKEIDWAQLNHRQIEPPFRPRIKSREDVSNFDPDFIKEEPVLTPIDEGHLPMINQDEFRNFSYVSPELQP
Chain of AKT2 (human) (P31751 whole entry, looked up): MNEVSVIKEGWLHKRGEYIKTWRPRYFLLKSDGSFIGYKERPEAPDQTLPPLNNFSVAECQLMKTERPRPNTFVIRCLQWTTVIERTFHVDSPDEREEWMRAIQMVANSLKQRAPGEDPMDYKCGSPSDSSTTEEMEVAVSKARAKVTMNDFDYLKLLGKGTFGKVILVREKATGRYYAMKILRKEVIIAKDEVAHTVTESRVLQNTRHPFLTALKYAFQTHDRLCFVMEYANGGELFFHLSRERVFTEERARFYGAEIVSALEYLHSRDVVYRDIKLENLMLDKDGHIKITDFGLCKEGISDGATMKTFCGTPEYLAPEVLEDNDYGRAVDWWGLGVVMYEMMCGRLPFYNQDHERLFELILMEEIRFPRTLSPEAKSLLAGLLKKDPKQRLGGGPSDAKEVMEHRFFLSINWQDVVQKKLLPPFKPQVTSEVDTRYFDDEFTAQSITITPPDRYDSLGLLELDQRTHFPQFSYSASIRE
Chain of RPS6KA1 KD1 (human) (Q15418 whole entry, looked up): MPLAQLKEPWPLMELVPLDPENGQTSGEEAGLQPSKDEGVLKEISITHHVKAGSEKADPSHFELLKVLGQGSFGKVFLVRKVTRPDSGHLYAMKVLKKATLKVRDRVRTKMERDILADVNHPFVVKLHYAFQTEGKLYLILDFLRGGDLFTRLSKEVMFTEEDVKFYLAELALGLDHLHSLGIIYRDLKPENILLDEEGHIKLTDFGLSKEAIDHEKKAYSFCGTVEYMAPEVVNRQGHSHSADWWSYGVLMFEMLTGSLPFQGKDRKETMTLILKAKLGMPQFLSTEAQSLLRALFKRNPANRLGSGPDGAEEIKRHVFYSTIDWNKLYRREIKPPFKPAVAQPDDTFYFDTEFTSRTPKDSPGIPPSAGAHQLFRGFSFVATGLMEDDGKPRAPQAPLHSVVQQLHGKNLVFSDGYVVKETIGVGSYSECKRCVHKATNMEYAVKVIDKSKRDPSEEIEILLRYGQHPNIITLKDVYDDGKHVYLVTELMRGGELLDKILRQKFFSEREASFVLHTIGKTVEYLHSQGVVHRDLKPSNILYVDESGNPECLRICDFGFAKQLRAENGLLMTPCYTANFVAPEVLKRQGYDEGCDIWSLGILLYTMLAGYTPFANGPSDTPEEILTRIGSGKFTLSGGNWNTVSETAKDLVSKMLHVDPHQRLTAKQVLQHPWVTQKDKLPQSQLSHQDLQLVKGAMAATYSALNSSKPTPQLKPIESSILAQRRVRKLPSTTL
Chain of AURKC (human) (Q9UQB9 whole entry, looked up): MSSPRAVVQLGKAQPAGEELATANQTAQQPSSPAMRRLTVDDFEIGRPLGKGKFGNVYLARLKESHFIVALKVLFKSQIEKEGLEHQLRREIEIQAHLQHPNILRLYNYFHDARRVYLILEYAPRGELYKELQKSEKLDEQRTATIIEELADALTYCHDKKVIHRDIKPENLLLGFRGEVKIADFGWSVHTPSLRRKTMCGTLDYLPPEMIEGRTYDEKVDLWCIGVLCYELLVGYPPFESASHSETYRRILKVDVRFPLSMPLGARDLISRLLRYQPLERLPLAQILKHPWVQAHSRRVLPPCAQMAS
Chain of PDPK1 (human) (O15530 whole entry, looked up): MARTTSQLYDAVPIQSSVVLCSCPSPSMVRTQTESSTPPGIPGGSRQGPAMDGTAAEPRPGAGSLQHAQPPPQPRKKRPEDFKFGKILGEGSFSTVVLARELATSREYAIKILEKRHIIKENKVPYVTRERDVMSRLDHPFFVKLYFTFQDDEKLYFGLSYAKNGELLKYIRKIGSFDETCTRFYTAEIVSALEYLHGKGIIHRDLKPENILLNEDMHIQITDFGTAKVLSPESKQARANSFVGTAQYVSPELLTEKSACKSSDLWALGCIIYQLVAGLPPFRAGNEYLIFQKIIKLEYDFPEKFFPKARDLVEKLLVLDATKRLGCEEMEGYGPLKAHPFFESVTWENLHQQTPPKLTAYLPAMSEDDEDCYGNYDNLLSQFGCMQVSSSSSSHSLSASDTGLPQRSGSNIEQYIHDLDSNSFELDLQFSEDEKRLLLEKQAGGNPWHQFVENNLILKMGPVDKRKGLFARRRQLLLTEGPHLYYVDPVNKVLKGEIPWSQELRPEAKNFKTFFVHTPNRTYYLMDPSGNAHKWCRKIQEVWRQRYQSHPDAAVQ
Chain of AURKB (human) (Q96GD4 whole entry, looked up): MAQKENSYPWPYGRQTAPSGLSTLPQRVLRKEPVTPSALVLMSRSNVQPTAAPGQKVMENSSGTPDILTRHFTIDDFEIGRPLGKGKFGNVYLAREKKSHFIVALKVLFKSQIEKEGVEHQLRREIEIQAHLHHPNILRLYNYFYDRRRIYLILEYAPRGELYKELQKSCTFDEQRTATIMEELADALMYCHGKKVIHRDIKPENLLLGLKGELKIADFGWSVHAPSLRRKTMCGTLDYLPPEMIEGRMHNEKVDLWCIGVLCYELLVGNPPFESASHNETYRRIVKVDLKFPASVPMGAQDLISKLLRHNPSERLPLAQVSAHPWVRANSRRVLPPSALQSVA

CC(C)(C)n1nc(-c2cccc3ccccc23)c2c(N)ncnc21
inhibition [1]: 18% | inhibition [2]: 0% | inhibition [3]: 0% | inhibition [4]: 0% | inhibition [5]: 12% | inhibition [6]: 17% | inhibition [7]: 27% | inhibition [8]: 0% | inhibition [9]: 0% | inhibition [10]: 32% | inhibition [11]: 21% | inhibition [12]: 0% | inhibition [13]: 14% | inhibition [14]: 5% | inhibition [15]: 8% | inhibition [16]: 0% | inhibition [17]: 31% | inhibition [18]: 9% | inhibition [19]: 24% | inhibition [20]: 10% | inhibition [21]: 30% | inhibition [22]: 0% | inhibition [23]: 0% | inhibition [24]: 4% | inhibition [25]: 0% | inhibition [26]: 0% | inhibition [27]: 66%

c1ccc(-c2n[nH]cc2-c2ccnc3ccccc23)nc1
inhibition [1]: 0% | inhibition [2]: 0% | inhibition [3]: 0% | inhibition [4]: 0% | inhibition [5]: 25% | inhibition [6]: 6% | inhibition [7]: 3% | inhibition [8]: 0% | inhibition [9]: 7% | inhibition [10]: 1% | inhibition [11]: 0% | inhibition [12]: 0% | inhibition [13]: 5% | inhibition [14]: 4% | inhibition [15]: 0% | inhibition [16]: 0% | inhibition [17]: 1% | inhibition [18]: 5% | inhibition [19]: 0% | inhibition [20]: 0% | inhibition [21]: 0% | inhibition [22]: 0% | inhibition [23]: 0% | inhibition [24]: 0% | inhibition [25]: 0% | inhibition [26]: 0% | inhibition [27]: 8%

Fc1ccc(Cl)cc1-c1nc(Nc2ccncc2)c2nccnc2n1
inhibition [1]: 39% | inhibition [2]: 26% | inhibition [3]: 35% | inhibition [4]: 0% | inhibition [5]: 12% | inhibition [6]: 8% | inhibition [7]: 18% | inhibition [8]: 12% | inhibition [9]: 0% | inhibition [10]: 21% | inhibition [11]: 19% | inhibition [12]: 10% | inhibition [13]: 27% | inhibition [14]: 10% | inhibition [15]: 43% | inhibition [16]: 8% | inhibition [17]: 51% | inhibition [18]: 12% | inhibition [19]: 18% | inhibition [20]: 5% | inhibition [21]: 12% | inhibition [22]: 8% | inhibition [23]: 24% | inhibition [24]: 13% | inhibition [25]: 22% | inhibition [26]: 14% | inhibition [27]: 15%

Nc1ccc(-c2cccc3c(=O)cc(N4CCOCC4)oc23)cc1
inhibition [1]: 2% | inhibition [2]: 0% | inhibition [3]: 0% | inhibition [4]: 2% | inhibition [5]: 7% | inhibition [6]: 14% | inhibition [7]: 4% | inhibition [8]: 0% | inhibition [9]: 0% | inhibition [10]: 0% | inhibition [11]: 0% | inhibition [12]: 0% | inhibition [13]: 4% | inhibition [14]: 0% | inhibition [15]: 1% | inhibition [16]: 0% | inhibition [17]: 0% | inhibition [18]: 2% | inhibition [19]: 0% | inhibition [20]: 0% | inhibition [21]: 0% | inhibition [22]: 3% | inhibition [23]: 2% | inhibition [24]: 0% | inhibition [25]: 0% | inhibition [26]: 0% | inhibition [27]: 0%

N#C/C(=C\c1ccc(O)c(O)c1)C(N)=S
inhibition [1]: 0% | inhibition [2]: 0% | inhibition [3]: 0% | inhibition [4]: 1% | inhibition [5]: 0% | inhibition [6]: 0% | inhibition [7]: 0% | inhibition [8]: 0% | inhibition [9]: 5% | inhibition [10]: 4% | inhibition [11]: 0% | inhibition [12]: 0% | inhibition [13]: 0% | inhibition [14]: 0% | inhibition [15]: 0% | inhibition [16]: 0% | inhibition [17]: 0% | inhibition [18]: 0% | inhibition [19]: 0% | inhibition [20]: 0% | inhibition [21]: 0% | inhibition [22]: 0% | inhibition [23]: 0% | inhibition [24]: 0% | inhibition [25]: 0% | inhibition [26]: 0% | inhibition [27]: 1%

O=C(Nc1cc(C(F)(F)F)cc(C(F)(F)F)c1)c1cc(Cl)ccc1O
inhibition [1]: 0% | inhibition [2]: 0% | inhibition [3]: 0% | inhibition [4]: 0% | inhibition [5]: 9% | inhibition [6]: 0% | inhibition [7]: 3% | inhibition [8]: 0% | inhibition [9]: 0% | inhibition [10]: 0% | inhibition [11]: 1% | inhibition [12]: 0% | inhibition [13]: 11% | inhibition [14]: 6% | inhibition [15]: 8% | inhibition [16]: 0% | inhibition [17]: 2% | inhibition [18]: 4% | inhibition [19]: 1% | inhibition [20]: 0% | inhibition [21]: 0% | inhibition [22]: 0% | inhibition [23]: 0% | inhibition [24]: 0% | inhibition [25]: 0% | inhibition [26]: 1% | inhibition [27]: 11%
